The results in this text go back to PMC8344022, “Small-molecule inhibitor of AF9/ENL-DOT1L/AF4/AFF4 interactions suppresses malignant gene expression and tumor growth” (Theranostics, 2021).

For experiment [1], the system named is H3K79me2 at gene promoters in Molm-13 cells. The experiment is described as follows: Chromatin immunoprecipitation (ChIP)-qPCR. Format: cell-based. The procedure: (§1) Next, compound 1 was tested for its ability to change expression of characteristic MLL-r leukemia genes HoxA9, Meis1 and Myc. Myc is also overexpressed in a broad range of AML and other cancers. […] (Figure S5), presumably because SEC is not recruited there.
Chromatin immunoprecipitation. […] Cells were lysed with nuclear lysis buffer and sonicated to ~100-1000 bp fragments, which was incubated at 4 °C overnight with the H3K79me2 antibody (#5427, Cell signaling) and IgG (C15410206, Diagenode). Protein A/G Magnetic Beads (10 µL, Novus Biologicals) were added and incubated for 2 h. The beads were washed 3x with RIPA buffer and 2x with TE buffer. DNA on the beads was eluted for 2 hours at 68 °C in 100 μL of an elution buffer (20 mM Tris pH 7.5, 5 mM EDTA, 50 mM NaCl, 1% SDS, 50 μg/ml proteinase K) (2x), and purified using a ChIP DNA Clean & Concentrator kit (Novus Biologicals). qPCR was done using the method described above.

In experiment [2] the target is T1, AF9-DOT1L interaction (Homo sapiens, UniProt P42568).
T1 construct: cDNA for human AF9 AHD domain (475-568) and ENL AHD domain (489-559) was synthesized; made in house; host or cells: E. coli BL21(DE3)
T1 sequence (P42568 475-568): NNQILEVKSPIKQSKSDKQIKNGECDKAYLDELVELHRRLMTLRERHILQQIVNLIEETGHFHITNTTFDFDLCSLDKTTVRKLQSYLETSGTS
Briefly: Alpha assay, AF9 AHD-DOT1L peptide interaction. The note with it: read-out: IC50, inhibition of AF9-DOT1L interaction. In kind it is binding. From the text:
We developed an Alpha (amplified luminescent proximity homogeneous assay) assay to determine the binding and inhibition of the PPI between maltose-binding protein (MBP)-tagged AF9 AHD and a biotin-labeled DOT1L peptide, using AlphaLisa streptavidin donor beads and anti-MBP acceptor beads. Laser excitation to the donor beads generates singlet oxygen radicals, which can travel for <200 nm in solution and cannot reach the free acceptor beads. The PPI brings the DOT1L coated donor beads and AHD coated acceptor beads together, allowing the radicals to activate the acceptor beads and produce luminescence. […] We also developed a fluorescence polarization (FP) assay. A fluorescein-labeled DOT1L peptide has a higher freedom in solution with a lower polarization value.
(§2) Alpha assays. Alpha assays were developed using Perkin-Elmer AlphaLisa anti-MBP kit, which contains streptavidin donor beads and anti-MBP acceptor beads. The assay was performed using a MBP-protein (5 nM), a biotinylated peptide (40 nM), and increasing concentrations of a compound in 25 µL buffer (PBS with 0.5 % BSA, pH 7.5) in 384-well plates according to the manufacturer's protocol and measured with a Tecan SPARK microplate reader. Data were imported into Prism (version 5.0), and IC50 values from 3 independent experiments with standard deviation were obtained by using a standard dose-response curve fitting.

Experiment [3] relates to MV4;11 leukemia xenograft. Briefly: Subcutaneous MV4;11 xenograft antitumor study. In kind it is in vivo, NOD-SCID mice. The following applies: 15 mg/kg/day i.p. for 10 days; two cohorts (N = 6 and 8; p < 0.01 and 0.05). The procedure:
In vivo antitumor activity of compound 1 was evaluated in a commonly used mouse model of MLL-r leukemia, [26]. 10^7 MV4;11 cells in 0.1 mL of saline and Matrigel (1:1) were injected subcutaneously into NOD-SCID mice, which can develop palpable tumors in ~2 weeks.
In vivo antitumor studies. All of the mouse studies were conducted in strict compliance with an IRB-approved protocol. NOD-SCID mice (4 to 6 weeks old, from Jackson lab) were obtained and maintained under specific pathogen-free conditions. 10^7 MV4;11 cells in medical grade saline and Matrigel (1:1, 0.1 mL) were inoculated subcutaneously and palpable tumors (2-3 mm in diameter) were developed in ~ 2 weeks. Mice were treated with compound 1 (15 mg/kg/day for 10 days) in saline (0.1 mL) administered intraperitoneally. Tumors were measured every 2 days and estimated by using the formula a×b^2/2.

The target in experiment [4] is p300 (Homo sapiens, UniProt Q09472). The experiment is described as follows: p300 histone acetyltransferase inhibition. The following applies: at 100 µM (Figure S3: 30 or 100 µM). In kind it is biochemical. The procedure:
Inhibition of DOT1L, LSD1 and p300 was performed using our previously reported methods, [37], [38].
LSD1, and p300 histone acetyltransferase at 30 or 100 µM, using our previous reported methods [Ref. 36, 37,
(1 picture or pasted object on this page, not shown here)

For experiment [5], the target named is T2, AF9-AF4 interaction (Homo sapiens, UniProt P42568).
T2 construct: cDNA for human AF9 AHD domain (475-568) and ENL AHD domain (489-559) was synthesized; made in house; host or cells: E. coli BL21(DE3)
The experiment is described as follows: Alpha assay, AF9-AF4 interaction. In kind it is binding. The following applies: read-out: IC50, inhibition of AF9-AF4 interaction. The procedure:
(§3) ENL is also a major MLL fusion partner (~10%). The AHD domains of human ENL and AF9 share a high homology with 82% identity and 89% similarity (Figure S1A). […] Our attempts to develop an Alpha assay for ENL-DOT1L failed. […] Compound 1's activity against ENL-DOT1L was therefore not determined.
as §2

Experiment [6] has as its system Molm-13 cells. Briefly: Annexin V apoptosis assay (flow cytometry). Format: cell-based. The procedure: Compound 1 (5 μM for 5 days) induced significant differentiation, with more cell populations expressing CD14 and CD11b, two cell surface proteins for macrophages/monocytes (Figure 5B).
Flow cytometry. […] Apoptosis was determined using the FITC Annexin V Apoptosis Detection Kit I (BD Bioscience) using the manufacturer's protocol. For other FACS assays, cells were labeled with fluorochrome-conjugated monoclonal antibodies against human CD14 and CD11b (BD Biosciences) according to the manufacturer's recommendation. Cells were analyzed using a FACS Calibur (BD Biosciences/Applied Biosystems) and data were processed using the program Flowjo (version7.6.5).

Experiment [7] deals with HoxA9, Meis1 and Myc expression in MV4;11 cells. Briefly: qPCR of MLL target genes. Format: cell-based. The following applies: 4 days. The procedure:
as §1
(§4) RNA extraction and Quantitative real-time PCR (qPCR). 10^5 cells/ml were incubated with a compound for 4 days and the RNA was extracted using RNeasy mini kit (#74104, Qiagen). 100-1000 ng of total RNA was reverse transcribed using iScript™ Reverse Transcription Supermix (Bio-Rad) using the manufacturer's protocol. Quantitative real-time PCR was carried out using Fast SYBR Green Master Mix (Applied Biosystems) according to the manufacturer's instructions. Measurements were performed in triplicate, using GAPDH as the reference gene. Real-time PCR was performed using Biosystems Step One Plus detection system. The following sequences of primers are used: […]

For experiment [8], the system named is HoxA9, Meis1 and Myc expression in Molm-13 cells. Briefly: qPCR of MLL target genes. Format: cell-based. The note with it: 4 days. The method, then:
as §1, §4

The target in experiment [9] is T3, AF9-AFF4 interaction (Homo sapiens, UniProt P42568).
T3 construct: cDNA for human AF9 AHD domain (475-568) and ENL AHD domain (489-559) was synthesized; made in house; host or cells: E. coli BL21(DE3)
The experiment is described as follows: Alpha assay, AF9-AFF4 interaction. Format: binding. The following applies: read-out: IC50, inhibition of AF9-AFF4 interaction. The method, then:
as §3, §2

Sequence of p300 (Q09472 whole entry, species assumed): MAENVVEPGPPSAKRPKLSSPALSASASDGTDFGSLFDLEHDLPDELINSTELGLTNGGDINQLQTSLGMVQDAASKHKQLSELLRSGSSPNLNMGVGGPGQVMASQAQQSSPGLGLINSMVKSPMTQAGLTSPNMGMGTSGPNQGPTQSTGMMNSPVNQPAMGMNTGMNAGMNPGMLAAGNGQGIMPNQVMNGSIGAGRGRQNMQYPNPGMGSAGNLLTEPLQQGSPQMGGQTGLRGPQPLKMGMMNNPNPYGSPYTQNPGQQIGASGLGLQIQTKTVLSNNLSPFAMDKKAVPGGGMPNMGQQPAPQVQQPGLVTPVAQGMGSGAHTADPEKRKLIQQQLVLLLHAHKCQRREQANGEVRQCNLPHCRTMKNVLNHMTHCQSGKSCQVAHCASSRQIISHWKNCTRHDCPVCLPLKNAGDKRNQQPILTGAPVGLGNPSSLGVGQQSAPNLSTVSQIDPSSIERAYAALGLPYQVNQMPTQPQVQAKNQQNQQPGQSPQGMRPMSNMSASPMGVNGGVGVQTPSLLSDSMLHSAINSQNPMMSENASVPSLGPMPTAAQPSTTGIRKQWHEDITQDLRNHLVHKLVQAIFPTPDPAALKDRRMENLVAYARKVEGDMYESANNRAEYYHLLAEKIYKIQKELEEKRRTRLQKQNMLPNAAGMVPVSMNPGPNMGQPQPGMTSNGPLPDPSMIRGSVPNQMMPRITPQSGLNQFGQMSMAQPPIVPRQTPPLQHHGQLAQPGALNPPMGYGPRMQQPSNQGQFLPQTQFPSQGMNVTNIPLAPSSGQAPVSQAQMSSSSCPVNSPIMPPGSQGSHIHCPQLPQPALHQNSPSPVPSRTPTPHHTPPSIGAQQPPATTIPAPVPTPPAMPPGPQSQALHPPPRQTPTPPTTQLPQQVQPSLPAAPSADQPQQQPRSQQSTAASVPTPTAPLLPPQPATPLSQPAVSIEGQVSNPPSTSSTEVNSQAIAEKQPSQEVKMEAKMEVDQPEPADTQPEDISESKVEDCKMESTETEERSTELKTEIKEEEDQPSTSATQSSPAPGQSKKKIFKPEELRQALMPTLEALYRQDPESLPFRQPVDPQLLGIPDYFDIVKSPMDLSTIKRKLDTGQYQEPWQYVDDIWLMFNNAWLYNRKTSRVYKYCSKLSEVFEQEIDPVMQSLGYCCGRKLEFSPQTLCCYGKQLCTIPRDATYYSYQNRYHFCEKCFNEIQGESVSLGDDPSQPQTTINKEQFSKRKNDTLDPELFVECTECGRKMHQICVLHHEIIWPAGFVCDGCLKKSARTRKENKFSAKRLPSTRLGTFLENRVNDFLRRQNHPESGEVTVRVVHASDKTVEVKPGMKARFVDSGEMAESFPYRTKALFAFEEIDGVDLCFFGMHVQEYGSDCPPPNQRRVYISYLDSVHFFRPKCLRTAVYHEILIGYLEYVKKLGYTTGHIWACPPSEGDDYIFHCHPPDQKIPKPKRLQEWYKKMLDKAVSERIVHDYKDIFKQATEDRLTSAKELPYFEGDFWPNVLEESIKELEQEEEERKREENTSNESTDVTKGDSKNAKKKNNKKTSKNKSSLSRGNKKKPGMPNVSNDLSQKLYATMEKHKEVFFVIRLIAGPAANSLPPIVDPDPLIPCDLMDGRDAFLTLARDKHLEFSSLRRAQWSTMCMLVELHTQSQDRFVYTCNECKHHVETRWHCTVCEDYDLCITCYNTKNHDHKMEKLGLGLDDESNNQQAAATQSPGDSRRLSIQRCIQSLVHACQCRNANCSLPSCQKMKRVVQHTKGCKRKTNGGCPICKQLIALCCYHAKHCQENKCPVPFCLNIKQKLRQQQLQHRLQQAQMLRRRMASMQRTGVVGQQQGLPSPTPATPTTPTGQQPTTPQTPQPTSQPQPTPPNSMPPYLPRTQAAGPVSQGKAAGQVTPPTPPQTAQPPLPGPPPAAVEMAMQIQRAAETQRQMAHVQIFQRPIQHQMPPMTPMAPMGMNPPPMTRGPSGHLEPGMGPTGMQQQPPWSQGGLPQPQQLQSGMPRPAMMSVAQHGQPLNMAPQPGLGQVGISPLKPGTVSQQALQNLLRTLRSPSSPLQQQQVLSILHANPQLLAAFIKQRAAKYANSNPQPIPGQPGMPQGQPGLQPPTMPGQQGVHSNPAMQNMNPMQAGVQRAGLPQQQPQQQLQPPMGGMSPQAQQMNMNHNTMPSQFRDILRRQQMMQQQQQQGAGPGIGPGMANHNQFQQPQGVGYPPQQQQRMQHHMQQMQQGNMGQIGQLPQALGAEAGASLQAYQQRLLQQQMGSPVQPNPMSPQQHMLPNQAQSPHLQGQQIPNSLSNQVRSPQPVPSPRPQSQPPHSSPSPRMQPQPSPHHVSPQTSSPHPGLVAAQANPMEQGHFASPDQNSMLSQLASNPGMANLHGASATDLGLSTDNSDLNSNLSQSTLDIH

`CC(C)(C)c1ccc(-n2cc(C(=O)NC3CCNCC3)nc2-c2ccccc2)cc1` [Compound 1]: the “H3K79-Me2 in a non-transcribed DNA region” value in [1] is on record as “did not significantly reduce H3K79-Me2”. Further, the “H3K79me2 in the gene promoters of HoxA9 and Myc” value in experiment [1] (5 μM for 4 days) is “decreased levels of H3K79me2”. The IC50 in experiment [2] came out at 3500 nM; in [5], 1500 ± 200 nM; in [9], 2500 ± 100 nM. For the same molecule, in experiment [3], the Tumor growth result was “significantly inhibited tumor growth”. For the same molecule, in experiment [4], the “Inhibition of p300 histone acetyltransferase activity” value is “did not significantly inhibit”. Also, the Apoptosis entry is listed as “did not cause significant apoptosis” in [6] (5 µM, 5-day incubation); 44.2% in experiment [6] (10 µM, 5 days); 73.6% in experiment [6] (15 µM, 5 days); less than 5% in [6] (short-term 2- or 3-day incubation). In addition, the “Expression of MLL target genes HoxA9, Meis1 and Myc” value in experiment [7] and in experiment [8] was “dose-dependently suppressed expression” in each case.
